Test results: PubChem BioAssay (NCI)
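Cultured in 96-well plates, cells were exposed to test compound for 48 hours across five concentrations. TGI: total growth inhibition.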

Experiments:
Experiment in all cases: NCI anticancer screen, dose series, 48 h
SF-268 CNS = test system: SF-268 CNS
SF-295 CNS = test system: SF-295 CNS
ACHN renal = test system: ACHN renal
SR leukemia = test system: SR leukemia
T-47D breast = test system: T-47D breast
EKVX NSCLC = test system: EKVX NSCLC
CAKI-1 renal = test system: CAKI-1 renal
MCF7 breast = test system: MCF7 breast
HS 578T breast = test system: HS 578T breast
OVCAR-5 ovarian = test system: OVCAR-5 ovarian
IGROV1 ovarian = test system: IGROV1 ovarian
RXF 393 renal = test system: RXF 393 renal
HT29 colon = test system: HT29 colon
NCI-H23 lung = test system: NCI-H23 lung
SK-MEL-2 melanoma = test system: SK-MEL-2 melanoma

| Structure (SMILES) | TGI (SF-268 CNS) | TGI (SF-295 CNS) | TGI (ACHN renal) | TGI (SR leukemia) | TGI (T-47D breast) | TGI (EKVX NSCLC) | TGI (CAKI-1 renal) | TGI (MCF7 breast) | TGI (HS 578T breast) | TGI (OVCAR-5 ovarian) | TGI (IGROV1 ovarian) | TGI (RXF 393 renal) | TGI (HT29 colon) | TGI (NCI-H23 lung) | TGI (SK-MEL-2 melanoma) |
| --- | --- | --- | --- | --- | --- | --- | --- | --- | --- | --- | --- | --- | --- | --- | --- |
| CC(=O)c1ccc(-c2oc(-c3ccccc3)cc2-c2ccc3c(c2)OCO3)s1 | > 100 µM | > 100 µM | > 100 µM | > 100 µM | > 100 µM | > 100 µM | 5.07 µM | > 100 µM | > 100 µM | > 100 µM | > 100 µM | > 100 µM | > 100 µM | 89.9 µM |  |
| C[C@]12CC[C@@H]3c4ccc(OC(=O)c5ccccc5)cc4CC[C@H]3[C@@H]1CCC2OC(=O)c1cccc2c(=O)c3ccccc3[nH]c12 (some centres undefined) | 44.9 µM | 37.5 µM | 46.8 µM | > 100 µM | 60.2 µM | 30.4 µM | 58.9 µM | 30.2 µM | 38.5 µM | 46.1 µM | 33.3 µM | 44.6 µM | 20.7 µM | 48.3 µM | 54.3 µM |
| O=S(=O)(O)c1cc(S(=O)(=O)O)c2c(N=Nc3cccc4ccccc34)c(O)ccc2c1 | > 100 µM | > 100 µM | > 100 µM | > 100 µM | > 100 µM | > 100 µM | > 100 µM | > 100 µM | > 100 µM | > 100 µM | > 100 µM | > 100 µM | > 100 µM | > 100 µM | > 100 µM |
| CNC(=O)Nc1cc2c3c(c1)CCCN3CCC2 | > 10 µM | > 10 µM | > 10 µM | > 10 µM | > 10 µM | > 10 µM | > 10 µM | > 10 µM | > 10 µM | > 10 µM | > 10 µM | > 10 µM | > 10 µM | > 10 µM | > 10 µM |
| CC(C)(C)CN1[C@@H]2CCCC[C@H]2N(CC(C)(C)C)P1(=O)Cc1ccccc1 | 28.7 µM | 23.1 µM | 28.5 µM | 29.7 µM | 26.6 µM | 27.4 µM | 27.3 µM | 26.2 µM | 31 µM | 25.4 µM | 23.3 µM | 24.1 µM | 21.7 µM | 26.2 µM | 29.9 µM |
| COC(=O)C1([C@@H]2C[C@@H](O)[C@]3(C)CC/C=C(\C)CCC[C@H](C)[C@H](O)[C@@H]2O3)CC1 | > 100 µM | > 100 µM | > 100 µM | 95.3 µM | > 100 µM | > 100 µM | > 100 µM | > 100 µM | > 100 µM | > 100 µM | > 100 µM | > 100 µM | > 100 µM | > 100 µM | > 100 µM |
| N#Cc1c(C#N)c(-c2cccc([N+](=O)[O-])c2)n(-c2ccccc2)c1N | > 100 µM | > 100 µM | > 100 µM | > 100 µM | > 100 µM | > 100 µM | > 100 µM | > 100 µM | > 100 µM | > 100 µM | > 100 µM | > 100 µM | > 100 µM | > 100 µM | > 100 µM |
